Measurements published in article PMC10017709, “Structural basis of selective cannabinoid CB2 receptor activation” (Nature Communications, 2023).
Several values for one entry are separate records, joined by “and”; a condition that tells them apart may be missing. Identical values can stand only once.

How the values were obtained:
CB1R I267ECL2L = CB1R I267ECL2L (Homo sapiens, UniProt P21554, I267L); assay: [35S]GTPγS assay, CB1R I267L mutant; assay type: biochemical
CB2R-I110^3.29L [1] = biological target: T1, CB2R-I110^3.29L (Homo sapiens, UniProt P34972, I110L); assay: [3H]CP55,940 displacement assay, CB2R I110L mutant; assay type: binding; details: for percentage specific [3H]CP55,940 binding: I1103.29L, individual replicates
T1 sequence (P34972 whole entry I110L): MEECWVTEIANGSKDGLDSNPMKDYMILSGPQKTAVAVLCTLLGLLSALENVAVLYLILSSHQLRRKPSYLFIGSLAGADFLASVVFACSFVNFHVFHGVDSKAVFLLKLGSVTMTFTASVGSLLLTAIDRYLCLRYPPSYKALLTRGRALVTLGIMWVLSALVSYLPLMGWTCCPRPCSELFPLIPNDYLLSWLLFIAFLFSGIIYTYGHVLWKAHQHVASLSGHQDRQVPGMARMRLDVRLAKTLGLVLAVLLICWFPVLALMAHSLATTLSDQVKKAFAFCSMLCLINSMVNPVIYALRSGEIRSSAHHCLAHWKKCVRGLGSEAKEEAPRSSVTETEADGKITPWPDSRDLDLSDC

CB2R-F117^3.36A = CB2R-F117^3.36A (Homo sapiens, UniProt P34972, F117A); assay: [35S]GTPγS assay, CB2R F117A mutant; assay type: biochemical
Sequence of CB2R-F117^3.36A (P34972 whole entry F117A): as the sequence (P34972 whole entry I110L) above, with L110I, F117A counted along it

CB2R-L182^ECL2I = CB2R-L182^ECL2I (Homo sapiens, UniProt P34972, L182I); assay: [35S]GTPγS assay, CB2R L182I mutant; assay type: biochemical; details: L182I mutant
Sequence of CB2R-L182^ECL2I (P34972 whole entry L182I): as the sequence (P34972 whole entry I110L) above, with L110I, L182I counted along it

CB2R-V261^6.51L = CB2R-V261^6.51L (Homo sapiens, UniProt P34972, V261L); assay: [35S]GTPγS assay, CB2R V261L mutant; assay type: biochemical; details: for [35S]GTPγS binding: V2616.51L, individual replicates
Sequence of CB2R-V261^6.51L (P34972 whole entry V261L): as the sequence (P34972 whole entry I110L) above, with L110I, V261L counted along it

CB2R-I110^3.29L [2] = biological target: T1, CB2R-I110^3.29L; assay: [35S]GTPγS assay, CB2R I110L mutant; assay type: biochemical; details: for [35S]GTPγS binding: I1103.29L, individual replicates
hCB2R = biological target: T2, hCB2R (Homo sapiens, UniProt P34972); assay: [3H]RO6957022 displacement assay; assay type: binding; details: for percentage specific [3H]RO6957022 binding (displacement): individual replicates
T2 construct: host or cells: CHO-K1 (CHOK1_hCB2bgal, PathHunter), membranes
T2 sequence (P34972 whole entry): as the sequence (P34972 whole entry I110L) above, with L110I counted along it

CB1R D266ECL2E = biological target: T3, CB1R D266ECL2E (Homo sapiens, UniProt P21554, D266E); assay: [3H]CP55,940 displacement assay, CB1R D266E mutant; assay type: binding
T3 construct: The WT CB1R and CB2R genes were subcloned into vector pcDNA3.1; HA signal peptide (N); expressed in transfected cells; host or cells: HEK293T (transient, membrane homogenates)
T3 sequence (P21554 whole entry D266E): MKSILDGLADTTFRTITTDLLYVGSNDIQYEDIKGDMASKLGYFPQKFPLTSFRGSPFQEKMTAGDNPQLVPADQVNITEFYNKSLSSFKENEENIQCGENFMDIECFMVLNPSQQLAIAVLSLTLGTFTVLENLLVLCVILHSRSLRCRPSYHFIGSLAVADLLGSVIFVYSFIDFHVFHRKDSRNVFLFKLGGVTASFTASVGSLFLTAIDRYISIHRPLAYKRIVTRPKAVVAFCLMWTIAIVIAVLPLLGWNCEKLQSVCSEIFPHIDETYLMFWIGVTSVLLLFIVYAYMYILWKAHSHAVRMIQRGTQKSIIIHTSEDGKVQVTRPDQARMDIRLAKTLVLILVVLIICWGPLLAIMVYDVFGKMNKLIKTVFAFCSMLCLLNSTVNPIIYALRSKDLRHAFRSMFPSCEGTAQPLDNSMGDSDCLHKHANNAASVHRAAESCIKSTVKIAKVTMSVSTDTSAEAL

[3] = tested on: cisplatin-induced nephropathy; assay: Cisplatin-induced nephropathy in wild type mice; assay type: in vivo, C57BL/6J mice; details: for BUN / CREA: 72 h; for BUN / CREA / HNE (HNE adducts, ELISA) / NT (protein nitration, ELISA) / IL1b expression (real-time PCR) / TNFa expression (real-time PCR): mean, n = 6; for HNE (HNE adducts, ELISA) / NT (protein nitration, ELISA) / IL1b expression (real-time PCR) / TNFa expression (real-time PCR): kidney; for HNE (HNE adducts, ELISA) / NT (protein nitration, ELISA): vehicle mean 1.0; for IL1b expression (real-time PCR) / TNFa expression (real-time PCR): vehicle mean 1.00
Protocol: Ten to twelve-week-old male/female C57BL/6J mice were obtained from The Jackson Laboratory (Bar Harbor, ME, USA). CB2R knockout mice (CB2R^−/−) and their wild-type littermates (CB2R^+/+) were developed as described previously and had been backcrossed to a C57BL/6J background. All animals were kept in a temperature-controlled environment (20–22 °C) with a 12 h light–dark cycle and were always allowed free access to food and water. All animal experiments reported in this manuscript complied with the National Institutes of Health “Guide for the Care and Use of Laboratory Animals” (NIH publication 86–23 revised 1985) and were approved by the Institutional Animal Care and Use Committee of the National Institute on Alcohol Abuse and Alcoholism (Bethesda, MD).
The well-established model of cisplatin-induced nephropathy was used[63]. Mice (CB2R^−/− and CB2R^+/+) were sacrificed 72 h after a single injection of cisplatin (cis-diamine platinum (II) dichloride (Sigma#P4394) 25 mg/kg i.p.; freshly dissolved in physiological saline) by cervical dislocation under deep anesthesia with 5% isoflurane, for collection of blood and tissue samples. LEI-102 was given i.p. or by oral gavage (p.o.) at 0.3, 3.0, and 10 mg/kg every day, starting 1.5 h before the cisplatin exposure. The drug was dissolved in a vehicle of DMSO:Tween 80:saline, 1:1:18. After administration of LEI‐102, mice were killed by cervical dislocation under deep anesthesia with 5% isoflurane, for collection of blood and tissue samples at the time described in the figure. The tetrad assay in mice has previously been described in detail.
Markers of kidney dysfunction (BUN and CREA), histopathology (PAS staining), immunostaining or ELISA for 3-nitrotyrosine (3-NT; Cell Biolabs #STA-305) and 4-hydroxynonenal (4-HNE; Cell Biolabs#STA-838), and real-time PCR (Primers from Qiagen, SYBER Green Vita Scientific#MEIF01301, High-Capacity cDNA Reverse Transcription Kit, Thermo Fisher Scientific#4368813) for inflammatory cytokines were performed as previously described. Tubular damage scores were determined based on the percentage of tubules showing epithelial necrosis where 0= normal; 1, <10%; 2, 10–25%; 3, 26–75%; 4, >75%. Tubular necrosis was defined as the loss of the proximal tubular brush border, blebbing of apical membranes, tubular epithelial cell detachment from the basement membrane, or intraluminal aggregation of cells and proteins. The morphometric examination was performed in a blinded manner. Ten fields were scored from each mouse kidneys at 200× magnification, and average scores were determined for each mouse. For final quantification graph, average tubular damage scores of six mice/group were plotted.

[4] = V261L mutant, <5 when curve fit not finished

Sequence of CB1R I267ECL2L (P21554 whole entry I267L): as the sequence (P21554 whole entry D266E) above, with E266D, I267L counted along it

SMILES: CC(C)CN1C(=O)CN(Cc2ccc(-c3ccc(F)c(CNC4CCOCC4)n3)cc2)C1=O [LEI-102, 1-(4-(5-fluoro-6-(((tetrahydro-2H-pyran-4-yl)amino)methyl)pyridin-2-yl)benzyl)-3-isobutylimidazolidine-2,4-dione]
- G protein activation, fold over its basal (CB1R I267ECL2L; CB1R I267ECL2L, individual replicates): 1.03 fold over its basal and 1.063 fold over its basal and 1.016 fold over its basal
- Agonist-mediated activation (CB1R I267ECL2L; CB1R I267L, 10 µM agonist): 1.0 ± 0.0 fold over its basal
- pKi (CB2R-I110^3.29L [1]; CB2R I110L mutant, [3H]CP55,940): remained similar
- percentage specific [3H]CP55,940 binding (CB2R-I110^3.29L [1]; log [ligand] (M) -5): 3.91% and 2.37% and 4.51%
- percentage specific [3H]CP55,940 binding (CB2R-I110^3.29L [1]; log [ligand] (M) -6): 9.98% and 9.21% and 3.23%
- percentage specific [3H]CP55,940 binding (CB2R-I110^3.29L [1]; log [ligand] (M) -7): 39.17% and 30.03% and 31.46%
- percentage specific [3H]CP55,940 binding (CB2R-I110^3.29L [1]; log [ligand] (M) -8): 86.59% and 79.23% and 85.93%
- percentage specific [3H]CP55,940 binding (CB2R-I110^3.29L [1]; log [ligand] (M) -9): 105.91% and 105.22% and 104.46%
- percentage specific [3H]CP55,940 binding (CB2R-I110^3.29L [1]; log [ligand] (M) -10): 128.52% and 108.89% and 100.89%
- Ki (CB2R-I110^3.29L [1]; read-out: pKi (converted)): 12.6 nM
- Emax (%) (CB2R-F117^3.36A; F117A mutant, at 10 µM compared to WT): 11 ± 11%
- [35S]GTPγS binding (CB2R-F117^3.36A; F1173.36A, log [ligand] (M) -5, individual replicates): -10.74 percentage of WT and 22.02 percentage of WT and 22.63 percentage of WT
- EC50 (CB2R-L182^ECL2I; <5 when curve fit not finished): 39.8 nM
- Emax (%) (CB2R-L182^ECL2I; at 10 µM compared to WT): 11 ± 8%
- EC50 (CB2R-V261^6.51L; [4]): 398 nM
- pEC50 (CB2R-V261^6.51L; [4]): no significant effect
- Emax (%) (CB2R-V261^6.51L; V261L mutant, at 10 µM compared to WT): 8 ± 4%
- [35S]GTPγS binding (CB2R-V261^6.51L; log [ligand] (M) -5): 10.29 percentage of WT and 13.28 percentage of WT and -0.20 percentage of WT
- [35S]GTPγS binding (CB2R-V261^6.51L; log [ligand] (M) -6): 38.11 percentage of WT and 3.14 percentage of WT and 6.06 percentage of WT
- [35S]GTPγS binding (CB2R-V261^6.51L; log [ligand] (M) -7): 1.50 percentage of WT and -10.33 percentage of WT and -12.90 percentage of WT
- [35S]GTPγS binding (CB2R-V261^6.51L; log [ligand] (M) -8): -5.39 percentage of WT and -14.91 percentage of WT and -5.93 percentage of WT
- [35S]GTPγS binding (CB2R-V261^6.51L; log [ligand] (M) -9): -6.94 percentage of WT and -6.08 percentage of WT and -10.10 percentage of WT
- [35S]GTPγS binding (CB2R-V261^6.51L; log [ligand] (M) -10): 6.99 percentage of WT and -5.10 percentage of WT and -20.01 percentage of WT
- EC50 (CB2R-I110^3.29L [2]; I110L mutant, HEK293T membranes): 15.8 nM
- Emax (%) (CB2R-I110^3.29L [2]; I110L mutant, at 10 µM compared to WT): 91 ± 3%
- [35S]GTPγS binding (CB2R-I110^3.29L [2]; log [ligand] (M) -5): 91.04 percentage of WT and 85.60 percentage of WT and 97.60 percentage of WT
- [35S]GTPγS binding (CB2R-I110^3.29L [2]; log [ligand] (M) -6): 71.11 percentage of WT and 90.00 percentage of WT and 68.00 percentage of WT
- [35S]GTPγS binding (CB2R-I110^3.29L [2]; log [ligand] (M) -7): 49.89 percentage of WT and 105.60 percentage of WT and 64.50 percentage of WT
- [35S]GTPγS binding (CB2R-I110^3.29L [2]; log [ligand] (M) -8): 38.52 percentage of WT and 44.70 percentage of WT and 17.20 percentage of WT
- [35S]GTPγS binding (CB2R-I110^3.29L [2]; log [ligand] (M) -9): 9.93 percentage of WT and -16.00 percentage of WT and -7.20 percentage of WT
- [35S]GTPγS binding (CB2R-I110^3.29L [2]; log [ligand] (M) -10): -2.60 percentage of WT and -2.20 percentage of WT and -32.20 percentage of WT
- Ki (hCB2R; CHOK1_hCB2bgal membranes, 10 °C): 9.7 nM
- percentage specific [3H]RO6957022 binding (displacement) (hCB2R; log [agonist] (M) -5): -32.33% and 4.32% and 0.17%
- percentage specific [3H]RO6957022 binding (displacement) (hCB2R; log [agonist] (M) -6): -14.04% and 1.26% and 2.78%
- percentage specific [3H]RO6957022 binding (displacement) (hCB2R; log [agonist] (M) -7): 18.14% and 30.43% and 22.20%
- percentage specific [3H]RO6957022 binding (displacement) (hCB2R; log [agonist] (M) -8): 86.67% and 64.68% and 56.33%
- percentage specific [3H]RO6957022 binding (displacement) (hCB2R; log [agonist] (M) -9): 136.04% and 85.34% and 92.04%
- percentage specific [3H]RO6957022 binding (displacement) (hCB2R; log [agonist] (M) -10): 150.08% and 77.03% and 85.93%
- Displacement (%) of [3H]CP55,940 (CB1R D266ECL2E; CB1R D266E, 10 µM compound): 38 ± 10%
- percentage specific [3H]CP55,940 binding (CB1R D266ECL2E; CB1R D266ECL2E, 10 µM ligand, replicates 1-3): 65.03 percentage and 44.89 percentage and 77.53 percentage
- BUN ([3]; Cis + LEI-102 i.p. 0.3 mg/kg every day): 143.0 mg/dL
- CREA ([3]; Cis + LEI-102 i.p. 0.3 mg/kg): 1.6 mg/dL
- BUN ([3]; Cis + LEI-102 i.p. 3 mg/kg): 32.8 mg/dL
- CREA ([3]; Cis + LEI-102 i.p. 3 mg/kg): 0.7 mg/dL
- BUN ([3]; Cis + LEI-102 i.p. 10 mg/kg): 24.8 mg/dL
- CREA ([3]; Cis + LEI-102 i.p. 10 mg/kg): 0.6 mg/dL
- BUN ([3]; Cis + LEI-102 p.o. 3 mg/kg): 53.5 mg/dL
- CREA ([3]; Cis + LEI-102 p.o. 3 mg/kg): 1.0 mg/dL
- BUN ([3]; Cis + LEI-102 p.o. 10 mg/kg): 31.8 mg/dL
- CREA ([3]; Cis + LEI-102 p.o. 10 mg/kg): 0.53 mg/dL
- lipid peroxidation and protein nitration in kidney ([3]; LEI-102 10 mg/kg by i.p. or p.o.): decreased
- functional markers of cisplatin-induced kidney injury (serum creatinine, blood urea nitrogen) ([3]; LEI-102 p.o. or i.p., 72 h after cisplatin 25 mg/kg i.p.): dose-dependent attenuation
- pro-inflammatory cytokines TNFα and IL1β elevated by cisplatin-induced injury ([3]; LEI-102 treated mice): attenuated
- HNE (HNE adducts, ELISA) ([3]; Cis + LEI-102 i.p. 10 mg/kg): 2.7
- NT (protein nitration, ELISA) ([3]; Cis + LEI-102 i.p. 10 mg/kg): 2.4
- IL1b expression (real-time PCR) ([3]; Cis + LEI-102 i.p. 10 mg/kg): 1.90
- TNFa expression (real-time PCR) ([3]; Cis + LEI-102 i.p. 10 mg/kg): 1.59
- HNE (HNE adducts, ELISA) ([3]; Cis + LEI-102 p.o. 10 mg/kg): 2.4
- NT (protein nitration, ELISA) ([3]; Cis + LEI-102 p.o. 10 mg/kg): 2.8
- IL1b expression (real-time PCR) ([3]; Cis + LEI-102 p.o. 10 mg/kg): 2.71
- TNFa expression (real-time PCR) ([3]; Cis + LEI-102 p.o. 10 mg/kg): 1.42
